Measured values from US5935955A, “Pharmaceutical piperazine compounds” (Xenova Limited, priority 1994, dated 1999).

What was measured:
[1] = tested on: MDR cells; details: in vitro and in vivo; Cancer Res., 41, 1967-1972 (1981); cited from earlier work
[2] = tested on: AR 1.0 cells; test: Compound toxicity (proliferation, sulphorhodamine B); assay type: cell-based; details: Mus musculus, 96 h; compound alone; AR 1.0 cells; four day incubation; read-out: Compound toxicity (IC50)
[3] = tested on: AR 1.0 cells; test: Drug accumulation assay (tritiated daunorubicin); assay type: cell-based; details: Mus musculus; daunorubicin 2 μM; 1 hr at 37° C.; read-out: IC50 accumulation
Experimental: AR 1.0 cells were seeded into 96 well opaque culture plates (Canberra Packard). The assay medium contained a mixture of tritiated Daunorubicin (DNR), a cytotoxic agent, and unlabelled DNR (0.3 μCi/ml; 2 μM). Compounds of formula I were serially diluted in assay medium over a range of concentrations from 5 nM to 100 μM. The cells were incubated at 37° C. for 1 hr before washing and determination of cell associated radioactivity. Results were expressed as % maximum accumulation where 100% accumulation is that observed in the presence of the known RMA verapamil at 100 μM. Where possible an IC50 was determined.

[4] = tested on: AR 1.0 cells; test: Potentiation index for doxorubicin (doxorubicin titration with fixed concentration of compound); assay type: cell-based, mouse; details: RMA at 1 μM; doxorubicin, four days
Experimental: The EMT6 mouse mammary carcinoma cell line and the MDR resistant sublime AR 1.0 were cultured in RPMI 1640 medium containing 10% foetal calf serum and 2 mM glutamine at 37° C. in 5% CO2. Cells were passaged between 1 in 200 and 1 in 2000 in the case of the parental cell line and between 1 in 20 and 1 in 200 in the case of the MDR resistant subline, after trypsinisation (0.25% trypsin, 0.2 gl^-1, EDTA).
Cells were cultured for four days with a titration of doxorubicin (0.01 nm-50 μM) in the presence of a fixed concentration of each compound. Proliferation was quantified as described by Skehan et. al, loc cit. The IC50 (concentration required to reduce proliferation to 50% of the untreated controls) for doxorubicin alone and with each compound were derived and used to calculate the potentiation index (PI): [formula]

[5] = tested on: AR 1.0 cells; test: Potentiation of doxorubicin toxicity (fixed doxorubicin 0.86 μM, proliferation, sulphorhodamine B); assay type: cell-based, mouse; details: with doxorubicin 0.86 μM; four day incubation; 5760 min; read-out: Toxicity with cytotoxic agent (IC50)
Text: Compounds of formula (I) were examined for their ability to potentiate the toxicity of doxorubicin in AR 1.0 cells.

Row | IC50 [3] | SMILES | sensitisation of MDR cells to Vinca alkaloids [1] | IC50 [2] | Potentiation index [4] | IC50 [5]
1 | 1750 nM | COc1cc2c(cc1OC)CN(CCc1ccc(COc3cccc(/C=c4\[nH]c(=O)/c(=C/c5ccccc5)n(C)c4=O)c3)cc1)CC2 [Compound 9177, (3Z,6Z)-6-Benzylidene-3-(3-(4-(2-(6,7-dimethoxy-1,2,3,4-tetrahydro-2-isoquinolyl)ethyl)benzyloxy)benzylidene)-1-methyl-2,5-piperazinedione] |  | 15000 nM | 75.0 | 500 nM
2 | 300 nM | COc1cc2c(cc1OC)CN(Cc1ccc(NC(=O)c3ccc(/C=c4\[nH]c(=O)/c(=C/c5ccccc5)n(C)c4=O)cc3)cc1)CC2.Cl [Compound 9064, N-(4-(6,7-Dimethoxy-1,2,3,4-tetrahydro-2-isoquinolyl)methylphenyl)-4-((3Z,6Z)-6-benzylidene-1-methyl-2,5-dioxo-3-piperazinylidene)methylbenzamide, hydrochloride] |  | 2000 nM | 750 | 10 nM
3 | 6000 nM | COc1ccc(N2CCN(C(=O)c3ccc(/C=c4\[nH]c(=O)/c(=C/c5ccccc5)n(C)c4=O)cc3)CC2)cc1.Cl [Compound 9071, 1-(4-((3Z,6Z)-6-Benzylidene-1-methyl-2,5-dioxo-3-piperazinylidene)methylbenzoyl)-4-(4-methoxyphenyl)piperazine, hydrochloride] |  | 6000 nM | 4 | 200 nM

The remaining lines, values behind:

Row | SMILES | IC50 [3] | sensitisation of MDR cells to Vinca alkaloids [1] | IC50 [2] | Potentiation index [4] | IC50 [5]
4 | COc1ccc(CCN(C)CCCC(C#N)(c2ccc(OC)c(OC)c2)C(C)C)cc1OC (centres unmarked) [Verapamil] |  | shown to sensitise MDR cells to Vinca alkaloids in vitro and in vivo |  |  | 
5 | Cn1c(=O)/c(=C/c2ccc(C(=O)N3CCN(c4ncccn4)CC3)cc2)[nH]c(=O)/c1=C/c1ccccc1 [Compound 9022, 1-(4-((3Z,6Z)-6-Benzylidene-1-methyl-2,5-dioxo-3-piperazinylidene)methylbenzoyl)-4-(2-pyrimidyl)piperazine] | 7000 nM |  | 35000 nM | 5 | 800 nM
